Measurements taken from PMC12180986, “Molecular basis for differential PIP2-mediated association between vinculin and its splice isoform metavinculin” (The Journal of Biological Chemistry, 2025).
Changes are numbered by the printed parent chain.

What was measured:
Type in all cases: binding
[1] = biological target: T1, MVt (metavinculin tail domain) (Homo sapiens, UniProt P18206); test: high-speed lipid cosedimentation with LUVs, protein titration; conditions: protein titrated at fixed 10% PIP2 in PE/PC/PS/PIP2 LUVs; Kd in protein concentration; 40 mM Hepes, 150 mM NaCl, pH 7.4, room temperature; read-out: Protein concentration (μM) / app Kd
T1 construct: gene VCL; tail domain residues 879-1134; N-terminal His-tag removed by TEV; 2HR-T vector; E. coli BL21(DE3)
T1 sequence (P18206 879-1134): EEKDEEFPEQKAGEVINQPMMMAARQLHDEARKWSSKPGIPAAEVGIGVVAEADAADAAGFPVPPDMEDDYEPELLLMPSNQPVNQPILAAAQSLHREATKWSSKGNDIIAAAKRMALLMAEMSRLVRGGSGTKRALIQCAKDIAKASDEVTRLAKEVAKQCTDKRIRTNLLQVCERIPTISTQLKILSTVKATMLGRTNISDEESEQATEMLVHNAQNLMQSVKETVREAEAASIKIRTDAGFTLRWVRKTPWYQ
Text: high-speed lipid cosedimentation with LUVs, protein titration on MVt (metavinculin tail domain)

[2] = biological target: T2, Vt (vinculin tail domain) (Gallus gallus, UniProt P12003); test: as above; conditions: protein titrated at fixed 10% PIP2 in PE/PC/PS/PIP2 LUVs; Kd in protein concentration; 40 mM Hepes, 150 mM NaCl, pH 7.4, room temperature; read-out: Protein concentration (μM) / app Kd
T2 construct: gene VCL; tail domain residues 879-1066; N-terminal His-tag removed by TEV; pQlinkH; E. coli BL21(DE3)
T2 sequence (P12003 879-1066 isoform P12003-1): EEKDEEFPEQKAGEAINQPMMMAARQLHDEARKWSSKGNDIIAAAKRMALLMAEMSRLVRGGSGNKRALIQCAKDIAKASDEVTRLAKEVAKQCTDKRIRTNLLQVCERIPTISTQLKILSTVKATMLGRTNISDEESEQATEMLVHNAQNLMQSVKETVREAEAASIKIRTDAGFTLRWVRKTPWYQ
Text: high-speed lipid cosedimentation with LUVs, protein titration on Vt (vinculin tail domain)

[3] = biological target: T2, Vt (vinculin tail domain); test: high-speed lipid cosedimentation with LUVs, PIP2 gradient; conditions: 10 μM protein, PE/PC/PS LUVs with 0-30 mol% PIP2; one-site fit; pH 7.4, room temperature; the table also has a μM column, which looks inconsistent with the lipid amount
Text: high-speed lipid cosedimentation with LUVs, PIP2 gradient on Vt (vinculin tail domain)

[4] = biological target: T3, MVt (metavinculin tail domain) (Homo sapiens, UniProt P18206, A934V); test: as above; conditions: 10 μM protein, PE/PC/PS LUVs with 0-30 mol% PIP2; one-site fit; pH 7.4, room temperature; the table also has a μM column, which looks inconsistent with the lipid amount
T3 construct: gene VCL; tail domain residues 879-1134; N-terminal His-tag removed by TEV; 2HR-T vector; E. coli BL21(DE3)
T3 sequence (P18206 879-1134 A934V): T1 sequence (P18206 879-1134) with A56V
Text: (§1) high-speed lipid cosedimentation with LUVs, PIP2 gradient on MVt (metavinculin tail domain)

[5] = biological target: T1, MVt (metavinculin tail domain); test: as above; conditions: 10 μM protein, PE/PC/PS LUVs with 0-30 mol% PIP2; one-site fit; pH 7.4, room temperature; the table also has a μM column, which looks inconsistent with the lipid amount
Text: as §1

L-α-phosphatidylinositol-4,5-bisphosphate [PIP2]
Kd [1]: 4.66 ± 1.62 µM | Kd [2]: 4.94 ± 1.56 µM | PIP2 (%) / app Kd [3]: 8.89 ± 1.25 % PIP2 (mol%) in liposomes | PIP2 (%) / app Kd [4]: 9.94 ± 2.52 % PIP2 (mol%) in liposomes | PIP2 (%) / app Kd [5]: 9.20 ± 1.80 % PIP2 (mol%) in liposomes
